# Results from PubChem BioAssay (NCI).
#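 Each compound was tested at five concentrations against cells in 96-well plates for 48 hours. Abbreviation: GI50, concentration required for 50% inhibition of growth. TGI denotes the concentration required for complete inhibition of growth.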
# Assays:
# Assay in all cases: NCI-60 cell line screen, 48 h
# HT29 colon = test system: HT29 colon
# OVCAR-4 ovarian = test system: OVCAR-4 ovarian
# SF-539 CNS = test system: SF-539 CNS
# SR leukemia = test system: SR leukemia
# SK-MEL-28 melanoma = test system: SK-MEL-28 melanoma
# SF-268 CNS = test system: SF-268 CNS
# OVCAR-8 ovarian = test system: OVCAR-8 ovarian
# UACC-257 melanoma = test system: UACC-257 melanoma
# UACC-62 melanoma = test system: UACC-62 melanoma
# HOP-62 NSCLC = test system: HOP-62 NSCLC
# MOLT-4 leukemia = test system: MOLT-4 leukemia
# COLO 205 colon = test system: COLO 205 colon
# HL-60(TB) leukemia = test system: HL-60(TB) leukemia
# ACHN renal = test system: ACHN renal
# XF 498 CNS = test system: XF 498 CNS
# HOP-18 NSCLC = test system: HOP-18 NSCLC
# KM20L2 colon = test system: KM20L2 colon
# DMS 114 small cell lung = test system: DMS 114 small cell lung
# DMS 273 small cell lung = test system: DMS 273 small cell lung
# HCT-15 colon = test system: HCT-15 colon
# TK-10 renal = test system: TK-10 renal
# SN12C renal = test system: SN12C renal
# NCI-H23 lung = test system: NCI-H23 lung
# NCI-H460 lung = test system: NCI-H460 lung
# EKVX NSCLC = test system: EKVX NSCLC
# RPMI-8226 leukemia = test system: RPMI-8226 leukemia
# NCI-H522 lung = test system: NCI-H522 lung
# HCC-2998 colon = test system: HCC-2998 colon
# SK-MEL-2 melanoma = test system: SK-MEL-2 melanoma
# K-562 leukemia = test system: K-562 leukemia
# MALME-3M melanoma = test system: MALME-3M melanoma
# 786-0 renal = test system: 786-0 renal
# IGROV1 ovarian = test system: IGROV1 ovarian
# A549 NSCLC = test system: A549 NSCLC
# NCI-H226 lung = test system: NCI-H226 lung
# SW-620 colon = test system: SW-620 colon
# M14 melanoma = test system: M14 melanoma
# OVCAR-3 ovarian = test system: OVCAR-3 ovarian
# CCRF-CEM leukemia = test system: CCRF-CEM leukemia
# DLD-1 colon = test system: DLD-1 colon
# SK-OV-3 ovarian = test system: SK-OV-3 ovarian
# CAKI-1 renal = test system: CAKI-1 renal
# OVCAR-5 ovarian = test system: OVCAR-5 ovarian
# RXF 393 renal = test system: RXF 393 renal
# UO-31 renal = test system: UO-31 renal
# HOP-92 NSCLC = test system: HOP-92 NSCLC
# LXFL 529 NSCLC = test system: LXFL 529 NSCLC
# SNB-19 CNS = test system: SNB-19 CNS
# KM12 colon = test system: KM12 colon
# U251 CNS = test system: U251 CNS
# SK-MEL-5 melanoma = test system: SK-MEL-5 melanoma
# HCT-116 colon = test system: HCT-116 colon
# SF-295 CNS = test system: SF-295 CNS
# SNB-75 CNS = test system: SNB-75 CNS
compound,measurement,setting,value
CC1=CC(=O)c2[nH]c3ccccc3c2C1=O,GI50,HT29 colon,17.6 µM
same,TGI,HT29 colon,> 25 µM
same,TGI,OVCAR-4 ovarian,7.58 µM
same,GI50,SF-539 CNS,4.28 µM
same,TGI,SF-539 CNS,7.79 µM
same,GI50,SR leukemia,5.71 µM
same,TGI,SR leukemia,16.7 µM
same,GI50,SK-MEL-28 melanoma,4.47 µM
same,TGI,SK-MEL-28 melanoma,7.98 µM
same,GI50,SF-268 CNS,4.36 µM
same,TGI,SF-268 CNS,7.89 µM
same,TGI,OVCAR-8 ovarian,7.45 µM
same,GI50,UACC-257 melanoma,4.57 µM
same,TGI,UACC-257 melanoma,8.58 µM
same,GI50,UACC-62 melanoma,4.21 µM
same,TGI,UACC-62 melanoma,7.67 µM
same,TGI,HOP-62 NSCLC,> 25 µM
same,GI50,MOLT-4 leukemia,5.36 µM
same,TGI,MOLT-4 leukemia,15.9 µM
same,GI50,COLO 205 colon,4.12 µM
same,TGI,COLO 205 colon,7.55 µM
same,GI50,HL-60(TB) leukemia,4.06 µM
same,TGI,HL-60(TB) leukemia,9.85 µM
same,GI50,ACHN renal,4.14 µM
same,TGI,ACHN renal,7.54 µM
same,GI50,XF 498 CNS,4.38 µM
same,TGI,XF 498 CNS,7.99 µM
same,GI50,HOP-18 NSCLC,3.35 µM
same,TGI,HOP-18 NSCLC,7.5 µM
same,TGI,KM20L2 colon,> 25 µM
same,TGI,DMS 114 small cell lung,7.82 µM
same,GI50,DMS 273 small cell lung,4.26 µM
same,TGI,DMS 273 small cell lung,7.83 µM
same,GI50,HCT-15 colon,4.2 µM
same,TGI,HCT-15 colon,7.61 µM
same,GI50,TK-10 renal,5.04 µM
same,TGI,TK-10 renal,9.24 µM
same,GI50,SN12C renal,4.59 µM
same,TGI,SN12C renal,8.17 µM
same,GI50,NCI-H23 lung,3.69 µM
same,TGI,NCI-H23 lung,7.28 µM
same,GI50,NCI-H460 lung,8.11 µM
same,TGI,NCI-H460 lung,> 25 µM
same,GI50,EKVX NSCLC,4.04 µM
same,TGI,EKVX NSCLC,8.48 µM
same,TGI,RPMI-8226 leukemia,14.7 µM
same,GI50,NCI-H522 lung,3.82 µM
same,TGI,NCI-H522 lung,7.24 µM
same,GI50,HCC-2998 colon,7.01 µM
same,TGI,HCC-2998 colon,24 µM
same,GI50,SK-MEL-2 melanoma,5.37 µM
same,TGI,SK-MEL-2 melanoma,13.8 µM
same,GI50,K-562 leukemia,5.56 µM
same,TGI,K-562 leukemia,14 µM
same,GI50,MALME-3M melanoma,4.85 µM
same,TGI,MALME-3M melanoma,8.54 µM
same,GI50,786-0 renal,4.27 µM
same,TGI,786-0 renal,7.71 µM
same,GI50,IGROV1 ovarian,6.63 µM
same,TGI,IGROV1 ovarian,17.1 µM
same,TGI,A549 NSCLC,> 25 µM
same,GI50,NCI-H226 lung,6.54 µM
same,TGI,NCI-H226 lung,22.7 µM
same,GI50,SW-620 colon,3.94 µM
same,TGI,SW-620 colon,7.65 µM
same,GI50,M14 melanoma,4.21 µM
same,TGI,M14 melanoma,7.62 µM
same,TGI,OVCAR-3 ovarian,8.02 µM
same,GI50,CCRF-CEM leukemia,3.33 µM
same,TGI,CCRF-CEM leukemia,10.6 µM
same,GI50,DLD-1 colon,5.06 µM
same,TGI,DLD-1 colon,8.82 µM
same,GI50,SK-OV-3 ovarian,21.1 µM
same,TGI,SK-OV-3 ovarian,> 25 µM
same,GI50,CAKI-1 renal,14.4 µM
same,TGI,CAKI-1 renal,> 25 µM
same,TGI,OVCAR-5 ovarian,12.2 µM
same,GI50,RXF 393 renal,3.47 µM
same,TGI,RXF 393 renal,6.74 µM
same,GI50,UO-31 renal,4 µM
same,TGI,UO-31 renal,7.4 µM
same,GI50,HOP-92 NSCLC,3.98 µM
same,TGI,HOP-92 NSCLC,7.36 µM
same,GI50,LXFL 529 NSCLC,4.22 µM
same,TGI,LXFL 529 NSCLC,7.63 µM
same,TGI,SNB-19 CNS,> 25 µM
same,GI50,KM12 colon,4.4 µM
same,TGI,KM12 colon,9.01 µM
same,GI50,U251 CNS,15.4 µM
same,TGI,U251 CNS,> 25 µM
same,GI50,SK-MEL-5 melanoma,4.22 µM
same,TGI,SK-MEL-5 melanoma,7.66 µM
same,GI50,HCT-116 colon,4.44 µM
same,TGI,HCT-116 colon,7.93 µM
same,GI50,SF-295 CNS,4.32 µM
same,TGI,SF-295 CNS,7.93 µM
same,GI50,SNB-75 CNS,4.36 µM
same,TGI,SNB-75 CNS,8.28 µM
